We go through five molecules from US6737400B2, “Method and composition for treating irritable bowel syndrome using low doses of opioid receptor antagonists” (Albert Einstein College of Medicine of Yeshiva University, priority 1999, dated 2004).

Series [1] has as its system IBS patients. The following applies: 30 mg, three times daily; cited from earlier work.
Series [2] relates to opioid analgesia in postsurgical patients. The settings on record: cited from earlier work; for Effect on analgesic potency of morphine: low-dose cotreatment with morphine, postsurgical patients, 24-hour test periods.
Series [3] deals with constipation-predominant IBS patients. The settings on record: eight patients, 16 mg three times a week, eight weeks; cited from earlier work.
Series [4] deals with patients with IBS. The series is described as follows: Open clinical study of low dose naltrexone in patients with IBS (daily symptom diary, global self-assessment). It is filed as in vivo, human. The method, then:
An open study of low dose naltrexone administration in four (4) patients with IBS was initiated. The patients were evaluated for IBS, based on the Rome criteria. All patients were screened for other disorders or medications that could cause gastrointestinal symptoms of IBS. These included inflammatory bowel disease, cancer, lactose intolerance, and neurological disorders, as well as the use of narcotic medications. […] Each subject was fully informed of the benefits and possible side effects of the study and thereafter freely gave their consent to participate in the study.
Each patient maintained a daily diary of the symptoms prior to and during treatment with 1-3 mg/day of naltrexone. Each participant noted the following symptoms:
Patients were permitted to remain on medications other than anticholinergics and anti-diarrheal agents (i.e., fiber bulking agents or lactose enzyme replacement if needed).
Naltrexone (tradename Revia; 50 mg tablets; DuPont Merck) was purchased at a pharmacy. Single tablets were crushed and dissolved in 50 ml boiled distilled water, and stored unfrozen in a refrigerator. Each patient received 2 ml (2 mg) orally each morning with breakfast. Medication was prepared weekly and used for seven doses, with the remainder being discarded.

Setting [5] is: Patient A, after 24 months, 2.5-3.0 mg/day.
[6] abbreviates: Patient B, after 12 months, 1.5-2.3 mg/day.
Setting [7] is: Patient D, after 9 months, 2.5-3.0 mg/day.

On to fedotizine, for which the “Treatment of IBS” value in series [1] was “successful treatment”.

Consider `C=CCN1CC[C@]23c4c5ccc(O)c4O[C@H]2C(=O)CC[C@@]3(O)[C@H]1C5` [naloxone], for which, in series [2], the “Effect on analgesic potency of morphine” value was “markedly enhanced the analgesic potency of morphine”.

`C=C1CCC2(O)C3Cc4ccc(OC5OC(C(=O)O)C(O)C(O)C5O)c5c4C2(CCN3CC2CC2)C1O5` (stereo not shown) [nalmefene glucuronide, Nalmefene glucuronide]: in series [3], the “Abdominal pain or bloating” value was “did not reduce abdominal pain or bloating”, the Stool consistency entry is “not improved”, the Stool frequency entry is “increased stool frequency” and the Transit time result is on record as “decreased transit time”.

Regarding `C=C1CC[C@@]2(O)[C@H]3Cc4ccc(O)c5c4[C@@]2(CCN3CC2CC2)[C@H]1O5` [nalmefene], the “Effect on morphine's analgesic potency” value in series [2] (ca. 15 μg, IV) is “markedly enhance morphine's analgesic potency”. In addition, the “Effect on opioid analgesia” value in series [2] (doses of >0.5 mg) is “markedly attenuate opioid analgesia”. For the same molecule, the “Effect on analgesic potency of morphine” value in series [2] is “markedly enhanced the analgesic potency of morphine”.

In the case of `O=C1CC[C@@]2(O)[C@H]3Cc4ccc(O)c5c4[C@@]2(CCN3CC2CC2)[C@H]1O5` [naltrexone], the Abdominal cramping entry in series [4] (setting [5]) is reported as “completely ceased”. In addition, the figures for the “Frequency of bowel actions” value in series [4] (setting [5]) and in series [4] (setting [6]) were “returned to normal levels” and “no change”, respectively. Besides, in series [4] (Patient A, after nine months of treatment), the Cramping abdominal pain result is recorded as “no cramping abdominal pain”. Besides, the Stool frequency is on record as 1-2 formed bowel movements per day in series [4] (Patient A, after nine months of treatment, oral daily, before treatment about 4-8 times per day) and 2-4 bowel movements per day in series [4] (Patient B, after 75 days of treatment, before treatment 10-12 diarrheal movements per day). The “Global improvement on the 0-4 scale” value in series [4] (Patient A, 0 = no observable change, 4 = marked and substantially improved) is reported as 4; in series [4] (Patient B) it was 3; in series [4] (Patient C) it was 2.5; in series [4] (Patient D), 2.5. Besides, the “Reduction in abdominal cramping” value in series [4] (setting [6]) stood at 50%. Further, the “Abdominal pain associated with cramping” value was “total elimination of abdominal pain associated with cramping” in series [4] (Patient B, after 75 days of treatment) and “eliminated” in series [4] (Patient C, after 75 days of 2 mg/day). The IBS symptoms entry in series [4] (Patient C, 24 month follow-up, diagnosed with fibromyalgia, 1-2 mg/day, stopped after 6 months) is listed as “did not respond”. Moreover, the “Frequency of loose bowel movements” value in series [4] (Patient C, after 75 days of 2 mg/day, before treatment 2-3 loose bowel movements daily) was “halved in frequency”. Besides, in series [4] (setting [7]), the Decrease in cramping is reported as 75%. Moreover, in series [4] (setting [7]), the “Reduction in frequency of bowel actions” value was determined as 20%. In series [4] (Patient D, low-dose treatment halted after 9 months), the “IBS symptoms after treatment was halted” value is on record as “IBS symptoms returned”. Moreover, the Abdominal cramping symptoms entry in series [4] (Patient D, upon initiation of low dose treatment, continued over 70 days) was “immediate relief of abdominal cramping symptoms”. Further, the “Reduction in stool frequency” value in series [4] (Patient D, upon initiation, continued over 70 day treatment period, before treatment 7-10 unformed diarrheal movements per day) was 50%. In addition, the “IBS symptoms on every other day dosing schedule” value in series [4] (Patients A and C, dosing changed to every other day) is on record as “IBS symptoms returned”. Also, the Side effects entry in series [4] (four patients, 2 mg orally each morning) was “None of the four patients reported discernible side effects”.
